In PMC12498190, “A Photocaged N‐Phosphonopiperidinone as a Selective Photo‐Cleavable DPP8/9 Inhibitor” (Chembiochem, 2025):

Molecular target: T1, PREP (Homo sapiens, UniProt P48147)
T1 construct: endogenous in cells; host or cells: HEK293 (Cytion, Germany, 300192)
T1 sequence (P48147 1-710): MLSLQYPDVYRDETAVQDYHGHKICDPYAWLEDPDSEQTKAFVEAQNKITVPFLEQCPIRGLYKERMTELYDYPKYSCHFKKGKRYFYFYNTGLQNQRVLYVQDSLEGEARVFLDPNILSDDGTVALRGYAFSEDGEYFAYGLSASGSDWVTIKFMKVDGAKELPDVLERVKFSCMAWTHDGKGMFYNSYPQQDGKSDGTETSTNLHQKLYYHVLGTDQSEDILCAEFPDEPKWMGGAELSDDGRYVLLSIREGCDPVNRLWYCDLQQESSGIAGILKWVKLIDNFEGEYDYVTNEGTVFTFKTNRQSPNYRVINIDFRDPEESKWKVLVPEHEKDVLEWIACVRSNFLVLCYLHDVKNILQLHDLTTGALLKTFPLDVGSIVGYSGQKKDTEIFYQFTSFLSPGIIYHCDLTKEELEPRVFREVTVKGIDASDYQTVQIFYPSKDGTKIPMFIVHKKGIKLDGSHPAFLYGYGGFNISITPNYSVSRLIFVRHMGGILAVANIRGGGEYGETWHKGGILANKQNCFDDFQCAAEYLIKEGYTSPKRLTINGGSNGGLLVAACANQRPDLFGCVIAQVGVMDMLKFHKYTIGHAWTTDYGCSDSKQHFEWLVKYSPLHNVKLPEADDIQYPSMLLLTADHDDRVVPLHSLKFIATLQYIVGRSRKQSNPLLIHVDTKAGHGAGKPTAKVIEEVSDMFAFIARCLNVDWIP
Experiment: In situ competitive ABPP in HEK293 cell culture, 70 kDa band
Format: cell-based
Settings: pre-incubation 1 h with 20 µM or 10 µM (method), 10 µM 2 for 1 h, light 5 min
Method: Figure 2 Competitive ABPP with photo‐cleavable inhibitor 5 in HEK293 cells. A) Schematic overview of a competitive ABPP experiment. A proteome is pre‐incubated with a competitor, followed by a labeling reaction with an activity‐based probe (ABP). In the case of a photocaged inhibitor, the active compound can be released via irradiation. Target proteins of the competitor cannot be bound by the ABP, resulting in an absence of the respective protein band in‐gel analysis. Created in BioRender. Najdzion, M. (2025) https://BioRender.com/84zn8cb B) Gel‐based competitive ABPP experiment in HEK293 cell lysates with the broadband serine hydrolase ABP ≡FP or the DPP8/9‐directed ABP 2 and the photocaged inhibitor 5, at the indicated concentrations, after or without prior irradiation with green light for 5 min. The corresponding pre‐incubation time for 5 was 30 min. C) Corresponding in situ competitive ABPP experiment in HEK293 cell culture, again with 10 µM 2 for 1 h. […] HEK293 cells were irradiated with a green LED lamp in the presence of 0.5% DMSO for 5 min (‘light’), and cell viability was measured after 24 h. […] For both compounds, cell viability was measured under ‘dark’ (not irradiated) and ‘light’ (irradiated for 5 min with a green LED lamp after the addition of the inhibitor) conditions. […]

CCCCCc1ccc(SCCP(=O)(OCC)N2CCC[C@H](NC(=O)OCC3=C4C(C)=CC(C)=[N+]4[B-](C)(C)n4c(C)cc(C)c43)C2=O)cc1 (stereo partly shown) [Compound 5]
Competition of PREP labeling in live cells (in words): partially competed
